Measured values: patent US8071654B2, “Inhibitors of thromboxane formation and action” (priority 2000, dated 2011)

What was measured:
[1] = test system: TxB2 formation; experiment: metabolism of [3H]-PGH2 to TxB2 by human platelets, TLC; type: cell-based; details: two doses of PBT-3, TLC profile
Procedure: 0.5 ml of platelet suspension was added to siliconized glass tubes (four at a time) and heated with magnetic stirring to 37° for 1 min in a platelet aggregometer (PAP-4C). Either vehicle alone (ethanol, 1 μl) or hepoxilin analog was then added, followed two min later by agonist (collagen: 2 μg; PGH2: 100 ng/0.5 ml; U46619: 10 ng/0.5 ml or I-BOP: 2 ng/0.5 ml). The response was recorded for the next 5 min. In experiments where analysis of TxB2 and HHT were to be made by HPLC, the platelet suspension at the end of the experiment was diluted with ethyl acetate, 100 ng of prostaglandin B1 was added as internal standard, and the mixture was acidified to pH 3 with 0.1 N HCl. After centrifugation, the organic layer was separated, washed twice with water to neutrality, and evaporated to dryness. Half of the sample was taken and was resuspended in 1 ml ethyl acetate containing 20 μg ADAM reagent, and was left in the dark for 2 h (38). […] In experiments where the conversion of tritiated PGH2 was to be monitored, the procedure described above was repeated with tritiated PGH2 instead of unlabeled PGH2. After extraction of the sample as described above, the radiolabeled compounds were analyzed by TLC. Dose response curves for varying amounts of test compounds were generated and the data expressed as % inhibition of collagen-induced platelet aggregation. […]

[2] = target: T1, COX-1 (Ovis aries, UniProt P05979); experiment: COX-1 activity, 14C-arachidonic acid conversion, TLC; type: biochemical; details: for COX-1 enzyme activity (% of control values, mean ± SD): n = 3
T1 construct: purchased Cayman Chemicals
T1 sequence (P05979 25-600): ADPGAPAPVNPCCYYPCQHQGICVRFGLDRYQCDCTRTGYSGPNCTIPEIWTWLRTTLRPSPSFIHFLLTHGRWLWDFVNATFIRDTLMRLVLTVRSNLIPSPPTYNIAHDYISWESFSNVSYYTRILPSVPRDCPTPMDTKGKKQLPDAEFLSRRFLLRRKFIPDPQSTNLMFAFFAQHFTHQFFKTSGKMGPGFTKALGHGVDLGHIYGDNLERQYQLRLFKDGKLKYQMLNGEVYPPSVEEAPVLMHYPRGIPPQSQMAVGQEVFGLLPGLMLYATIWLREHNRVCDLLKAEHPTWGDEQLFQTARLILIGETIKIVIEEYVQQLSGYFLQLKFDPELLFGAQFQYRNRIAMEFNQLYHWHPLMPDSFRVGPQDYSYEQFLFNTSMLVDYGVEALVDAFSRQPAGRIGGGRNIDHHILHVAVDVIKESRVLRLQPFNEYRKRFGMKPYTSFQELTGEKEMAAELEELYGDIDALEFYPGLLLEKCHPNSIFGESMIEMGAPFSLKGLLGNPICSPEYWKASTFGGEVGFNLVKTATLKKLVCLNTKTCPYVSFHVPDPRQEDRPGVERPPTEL
Procedure: (§1) COX-1 and COX-2 enzyme preparations were purchased from Cayman Chemicals. Preliminary studies established that 40 U of COX-1 or COX-2 could convert about 70% of ^14C-arachidonic acid (spec. act. 55 mCi/mmol, Ontario Isotopes, Ontario, Canada; 100,000 cpm were diluted with 0.5 μg unlabeled arachidonic acid (Cayman Chemicals)/1 ml assay) into products in vitro. Different amounts of PBT-3 (10 μg and 20 μg) were added and the conversion of AA into products was assessed during a 10 min reaction in 1 ml phosphate buffer at 37°. After extraction, products were assessed by TLC (silica gel G, ethyl acetate/acetic acid, 99/1, v/v). After development, the TLC plates were scanned for radioactive products with a Berthold TLC radiochromatogram scanner and the radioactivity was quantified by scraping zones of silica gel, placing in scintillation vials, elution with 1 ml methanol and addition of scintillation medium. Radioactivity was determined by conventional counting in a beta scintillation counter.

[3] = target: T2, COX-2 (Homo sapiens, UniProt P35354); experiment: COX-2 activity, 14C-arachidonic acid conversion, TLC; type: biochemical; details: for COX-2 enzyme activity (% of control values, mean ± SD): n = 3
T2 construct: purchased Cayman Chemicals
T2 sequence (P35354 18-604): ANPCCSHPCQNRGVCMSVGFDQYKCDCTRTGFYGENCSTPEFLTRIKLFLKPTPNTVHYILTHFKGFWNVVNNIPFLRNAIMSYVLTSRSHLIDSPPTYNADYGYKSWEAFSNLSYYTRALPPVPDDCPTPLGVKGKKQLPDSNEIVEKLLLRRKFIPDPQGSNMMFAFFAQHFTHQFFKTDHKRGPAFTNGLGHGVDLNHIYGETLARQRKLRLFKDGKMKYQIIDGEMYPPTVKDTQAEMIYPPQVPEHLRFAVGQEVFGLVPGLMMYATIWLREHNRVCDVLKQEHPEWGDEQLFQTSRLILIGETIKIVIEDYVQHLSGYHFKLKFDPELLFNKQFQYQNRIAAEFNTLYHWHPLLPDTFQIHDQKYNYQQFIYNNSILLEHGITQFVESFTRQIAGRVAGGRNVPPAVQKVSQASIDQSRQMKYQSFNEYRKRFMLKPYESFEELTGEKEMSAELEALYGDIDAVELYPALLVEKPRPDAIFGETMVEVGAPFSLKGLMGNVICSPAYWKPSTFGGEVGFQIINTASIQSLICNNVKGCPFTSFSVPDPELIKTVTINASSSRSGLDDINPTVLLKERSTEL
Procedure: as §1

[4] = relatively large amounts of PBT-3, about 3-4 log doses greater than required to inhibit the TP receptor

COX-1 enzyme activity (% of control values, mean ± SD) ([2]; PBT-3 3.00 μM): 119.6 ± 14^NS % of control
COX-1 enzyme activity (% of control values, mean ± SD) ([2]; PBT-3 30.0 μM): 116.8 ± 11^NS % of control
COX-2 enzyme activity (% of control values, mean ± SD) ([3]; PBT-3 3.00 μM): 109.2 ± 8.0^NS % of control
COX-2 enzyme activity (% of control values, mean ± SD) ([3]; PBT-3 30.0 μM): 107.1 ± 14^NS % of control
SMILES: CCCCC/C=C\CC1CC1[C@@H](O)/C=C\C/C=C\CCCC(=O)OC (stereo partly drawn) [PBT-3, 10(S)-hydroxy-11,12-cyclopropyl-eicosa-5Z,8Z,14Z-trienoic acid methyl ester]
inhibition of formation of tritiated TxB2 from [3H]-PGH2 [1]: inhibitory action
inhibition of COX-1, in words [2, 4]: Neither COX-1, COX-2,12-LOX nor Plase A2 was inhibited
inhibition of COX-2, in words [3, 4]: Neither COX-1, COX-2,12-LOX nor Plase A2 was inhibited
